Test results: patent US5064946A, “Therapeutic nucleosides” (priority 1987, dated 1991)

Assays:
clinical = conditions: human, in vivo
Protocol: On days 2 and 3 the patients were also given 500 mg probenecid (PB) every 6 hours and a single dose of AZT was given on day 3.

[1] = system: Friend Leukemia Virus (FLV); assay: Anti-Friend Leukemia Virus plaque inhibition in FG-10 cells; type: cell-based; conditions: 144 h, read-out: Azidothymidine ED50
[2] = system: thrombocytopaenia purpura; assay: Anti-ITP activity: platelet count in a patient with thrombocytopaenia purpura; type: in vivo, human (patient)
Protocol: A patient having a platelet count of 38,000 mm^-3 was diagnosed as having thrombocytopaenia purpura (platelet count <100,000 mm^-3) and was treated for 6 weeks with 5 mg/kg of AZT intravenously every 6 hours during which time, their platelet count rose to 140,000 mm^-3. Treatment was then changed to 5 mg/kg/4 hours orally for 4 weeks, discontinued for 4 weeks, when a drop in platelet numbers, to 93,000 mm^-3 after 2 weeks, and to 70,000 mm^-3 after 4 weeks, was seen. Treatment was recommenced at 5 mg/kg/4 hours orally for 5 weeks and the platelet count rose to 194,000 mm^-3.

Kaposi's sarcoma (KS) = assay: Treatment of Kaposi's sarcoma in 9 patients; type: in vivo, human (patients)
Protocol: In this study, 9 patients diagnosed as having Kaposi's sarcoma (KS) were treated with AZT and the following effects observed.

HIV [3] = assay: AZT/Acyclovir combinations vs. HIV in vitro (protection); type: cell-based
HIV [4] = assay: AZT/Interferon combinations vs. HIV in vitro in PBMC: reverse transcriptase (RT) activity of supernatants; type: cell-based; conditions: rIFNαA 0; for mean reverse transcriptase value: Experiment 2-Day 10
HIV p24 = assay: AZT/Interferon combinations vs. HIV in vitro in PBMC: HIV p24 antigen by radioimmunoassay; type: cell-based; conditions: Experiment 4-Day 14, IFNαA 0
HIV [5] = assay: AZT/Interferon combinations vs. HIV in vitro in PBMC: overall inhibition / synergy (all measures of viral replication, isobologram); type: cell-based; conditions: experiment 1, all concentrations of AZT
[6] = system: Friend Leukaemia Virus (FLV); conditions: Krieg et al. 1978; cited from earlier work
[7] = system: vaccinia, HSVI and varicella zoster virus (VZV); conditions: De Clerq et al. 1980, incl. vaccinia; cited from earlier work
[8] = Ostertag et al. 1974; cited from earlier work
E. coli CN314 = assay: In vitro antibacterial MIC and synergy studies against E. coli CN314; conditions: Escherichia coli

Cc1cn([C@H]2C[C@H](N=[N+]=[N-])[C@@H](CO)O2)c(=O)[nH]c1=O [AZT]
decrease in the total body clearance (Cl/F) (clinical): 3 -fold | peak (Cmax) and trough (Cmin) levels on day 3 vs day 1 (clinical): significantly higher than the corresponding levels on day 1 | tl/2 (clinical; po, 2 mg/kg): 0.89 h | AUC (clinical; po, 2 mg/kg, AUC): 3.7 µM·h | Cmax (clinical; po, 2 mg/kg, Cmax): 3.74 µM | Tmax (clinical; po, 2 mg/kg, Tmax): 30 min | half-life (clinical; po, 2 mg/kg, mean half-life (tl/2)): 52.8 min | half-life (clinical; po, 2 mg/kg, tl/2): 52.2 min | EC50 [1]: 5 nM | platelet count ([2]; 2 weeks after discontinuation): 93,000 mm^-3 | platelet count ([2]; 4 weeks after discontinuation): 70,000 mm^-3 | platelet count ([2]; after 6 weeks 5 mg/kg i.v. every 6 hours (start 38,000)): 140,000 mm^-3 | platelet count ([2]; treatment recommenced, 5 mg/kg/4 hours orally for 5 weeks): 194,000 mm^-3 | response (Kaposi's sarcoma (KS); 9 patients): 50% | patients exhibiting regression of lesions (Kaposi's sarcoma (KS); of 9 patients): Three | patients in which lesions progressed (Kaposi's sarcoma (KS); of 9 patients): 3 patients | patients in which the KS remained stable (Kaposi's sarcoma (KS); of 9 patients): 2 patients | patients with complete cure (Kaposi's sarcoma (KS); of 9 patients): one | response relative to preferred current therapy (Kaposi's sarcoma (KS); vs recombinant a-interferon): comparable to that obtained with treatment with the preferred current therapy for KS, recombinant a-interferon | inhibition at 8 µM (HIV [3]; Human immunodeficiency virus 1, T-cell, AZT alone, 8 μM): 100% | AZT concentration required to achieve 100% protection (HIV [3]; with ACV 0 μg/ml): 8 µM | mean reverse transcriptase value (HIV [4]; AZT 0.01 μM): 159 cpm/10^6 cells × 10^3 | mean reverse transcriptase value (HIV [4]; AZT 0.02 μM): 110 cpm/10^6 cells × 10^3 | mean reverse transcriptase value (HIV [4]; AZT 0.04 μM): 71 cpm/10^6 cells × 10^3 | mean reverse transcriptase value (HIV [4]; AZT 0.08 μM): 31 cpm/10^6 cells × 10^3 | mean reverse transcriptase value (HIV [4]; AZT 0.16 μM): 7 cpm/10^6 cells × 10^3 | mean RT value (HIV [4]; Experiment 3-Day 13, AZT 0.02 μM): 51 cpm/10^6 cells × 10^3 | mean RT value (HIV [4]; Experiment 3-Day 13, AZT 0.04 μM): 10 cpm/10^6 cells × 10^3 | mean RT value (HIV [4]; Experiment 3-Day 13, AZT 0.08 μM): 2 cpm/10^6 cells × 10^3 | mean RT value (HIV [4]; Experiment 3-Day 13, AZT 0.16 μM): 5 cpm/10^6 cells × 10^3 | mean RT value (HIV [4]; Experiment 4-Day 11, AZT 0.02 μM): 8 cpm/10^6 cells × 10^3 | mean RT value (HIV [4]; Experiment 4-Day 11, AZT 0.04 μM): 4 cpm/10^6 cells × 10^3 | mean RT value (HIV [4]; Experiment 4-Day 11, AZT 0.08 μM): 1 cpm/10^6 cells × 10^3 | HIV p24 (HIV p24; AZT 0.02 μM): 100-200 ng protein/ml | HIV p24 (HIV p24; AZT 0.04 μM): 25-30 ng protein/ml | HIV p24 (HIV p24; AZT 0.08 μM): 11.2 ng protein/ml | inhibition of HIV (HIV [5]): fully inhibitory | activity against FLV in in vitro experiments [6]: active against FLV | activity against any viruses used in their tests [7]: no appreciable activity | cellular toxicity [8]: lack of cellular toxicity | MIC (E. coli CN314): 1 µg/mL
